Source: patent publication US7320990B2, “Crystalline form of a biphenyl compound” (Theravance, Inc., priority 2004, dated 2008)
pEC50: −log10 of the molar value.

Assays:
[1] = system: human β1, β2 or β3 adrenergic receptors; assay: Whole-cell cAMP Flashplate assay in CHO cell lines heterologously expressing human β adrenergic receptors; type: cell-based; conditions: CHO-K1 cells; receptor subtype not named in the result sentence; read-out: EC50 values (β receptor agonist potency, cAMP)
Experimental: Test compounds (10 mM in DMSO) were diluted into PBS containing 0.1% BSA in Beckman Biomek-2000 and tested at 11 different concentrations ranging from 100 μM to 1 pM.

[2] = system: His-induced bronchoconstriction; assay: Bronchoprotection in guinea pig model of histamine-induced bronchoconstriction; type: in vivo; conditions: inhalation, 1.5 hours post-dose
Experimental: (§1) Groups of 6 male guinea pigs (Duncan-Hartley (HsdPoc:DH) Harlan, Madison, Wis.) weighing between 250 and 350 g were individually identified by cage cards. Throughout the study, animals were allowed access to food and water ad libitum.
(§2) Forty-five minutes prior to the start of the pulmonary evaluation, each guinea pig was anesthetized with an intramuscular injection of ketamine (43.75 mg/kg), xylazine (3.50 mg/kg) and acepromazine (1.05 mg/kg). After the surgical site was shaved and cleaned with 70% alcohol, a 2-3 cm midline incision of the ventral aspect of the neck was made. […] The depth of anesthesia was monitored and adjusted if the animal responds to pinching of its paw or if the respiration rate was greater than 100 breaths/minute. […]
(§3) Once it was determined that baseline values were within the range of 0.3-0.9 mL/cm H2O for compliance and within the range of 0.1-0.199 cm H2O/mL per second for resistance, the pulmonary evaluation was initiated. […]
(§4) Starting this program initiated the experimental protocol and data collection. The changes in […] over time that occur within the plethysmograph with each breath were measured via a Buxco pressure transducer. By integrating this signal over time, a measurement of flow was calculated for each breath. […]

[3] = system: ACh-induced bronchoconstriction; assay: Bronchoprotection in guinea pig model of acetylcholine-induced bronchoconstriction; type: in vivo; conditions: inhalation, 1.5 hours post-dose
Experimental: as §1, §2, §3, §4

[4] = Thermal analysis (DSC and TGA); type: physicochemical
Experimental: Differential scanning calorimetry (DSC) was performed using a TA Instruments Model Q-10 module with a Thermal Analyst controller. Data were collected and analyzed using TA Instruments Thermal Solutions software. A sample of about 1 mg was accurately weighed into an aluminum pan with lid. The sample was evaluated using a linear heating ramp of 5° C./min from ambient temperature to approximately 300° C. The DSC cell was purged with dry nitrogen during use.
Thermogravimetric analysis (TGA) was performed using a TA Instruments Model Q-50 module equipped with Hi-Resolution capability. Data were collected and analyzed using TA Instruments Thermal Solutions software. A sample weighing about 10 mg was placed onto a platinum pan and scanned with a high resolution-heating rate from ambient temperature to 300° C. The balance and furnace chambers were purged with nitrogen flows during use.

[5] = Dynamic moisture sorption assessment (DMS); type: physicochemical; conditions: for deliquescence: exposed to atmosphere moisture
Experimental: Approximately 10 mg of sample was used in the microbalance and the sample was run as received. The humidity was set at ambient condition on the day the analysis began. A typical DMSG analysis consisted of three scans: ambient to 2% relative humidity (RH), 2% RH to 90% RH, 90% RH to 5% RH. The scan rate was 5% RH/step. The mass was measured every two minutes using an equilibrium window of 5 points within 0.01% of the initial sample weight. The RH was changed to the next value (+/−5% RH) when the mass of the sample was stable to within 0.01% for 5 consecutive points.

[6] = listed as crystalline naphthalene-1,5-disulfonic acid salt of the compound of formula I
[7] = listed as naphthalene-1,5-disulfonic acid salt of the present invention

Row | pEC50 [1] | Molecule | ID50 for His-induced bronchoconstriction [2] | ID50 for ACh-induced bronchoconstriction [3] | weight loss (TGA) ([4]; from room temperature to 150° C.) | temperature below which no thermal decomposition occurs (DSC) ([4]; heating ramp of 5° C./min) | moisture sorption/desorption profile [5] | deliquescence [5, 6] | deliquescence [5, 7] | weight gain ([5]; humidity range from 2% RH up to 90% RH) | weight gain ([5]; humidity range of 40% RH to 75% RH) | hygroscopicity (weight gain when exposed to atmospheric moisture) [5, 6] | hygroscopicity (weight gain when exposed to atmospheric moisture) [5, 7]
1 | > 8.00 | O=C(Nc1ccccc1-c1ccccc1)OC1CCN(CCCCCCCCCNC[C@H](O)c2ccc(O)c3[nH]c(=O)ccc23)CC1 [compound of formula I, biphenyl-2-ylcarbamic acid 1-{9-[(R)-2-hydroxy-2-(8-hydroxy-2-oxo-1,2-dihydro-quinolin-5-yl)ethylamino]nonyl}piperidin-4-yl ester] | less than 100 μg/mL | less than 100 μg/mL | – | – | – | – | – | – | – | – | –
2 | – | Biphenyl-2-ylcarbamic Acid 1-{9-[(R)-2-Hydroxy-2-(8-Hydroxy-2-oxo-1,2-dihydroquinolin-5-yl)ethylamino]nonyl}piperidin-4-yl Ester Naphthalene-1,5-disulfonic Acid Salt [Example 3] | – | – | about 1.8% | ≥ 200 °C | reversible | not to be deliquescent | not deliquescent | 3.7% | less than 1.5% | less than 5% | < 5%
